This is an account of results in patent US20130115220A1, “METHOD FOR PREVENTION OR TREATMENT OF METABOLIC SYNDROME” (DAINIPPON SUMITOMO PHARMA CO., LTD., priority 2010, published 2013).

SMILES strings stand for the structures.

The assay deals with T1, FAS (Mus musculus, UniProt P19096).
T1 construct: endogenous in cells; host or cells: 3T3-L1 adipocytes (treated cells, then lysed)
Put plainly: FAS enzyme activity of treated 3T3-L1 adipocytes. The class given is cell-based. The note with it: 3T3-L1 cells, C75 25 μM, 6 days. The protocol:
The influence of AIM on FAS activity of adipocyte or adipose tissue was examined. FAS activity was measured by the method of Kelley (Kelley et al., Biochem. J., 1986, 235:87-90) with slight modification. 3T3-L1 adipocytes, or lysates of adipose tissue of obese mice was mixed with acetyl-CoA and NADPH (0.2 M […] phosphate buffer [pH 7.0] containing 0.4 mM EDTA), and the mixture was placed in a spectrophotometer cuvette and maintained at 30° C. 20 μl of malonyl-CoA solution (0.2 mM) was added to start an enzyme reaction and decrease of OD was measured at a chart speed 2 cm/min. Based on the results, the enzyme activity of FAS was evaluated using the molar extinction coefficient of […] NADPH as 6220.
First, the FAS activity of 3T3-L1 cells treated for 6 days in the presence or absence of rAIM (5 μg/ml), and in the presence of C75 (25 μM) was measured. Moreover, the FAS activity of adipose tissues of AIM^+/+ mice and AIM^−/− mice and the FAS activity of adipose tissue of AIM^−/− mice administered with rAIM or BSA 3 hr before by intraadipose topical injection are shown in FIGS. 28 and 29, respectively.
All mice were fed with HFD for 20 weeks. The samples were dissolved (lysed) and the FAS activity was measured. The data was converted to that based on FAS protein, according to the results of WB performed using the same sample.

T1 sequence (P19096 whole entry): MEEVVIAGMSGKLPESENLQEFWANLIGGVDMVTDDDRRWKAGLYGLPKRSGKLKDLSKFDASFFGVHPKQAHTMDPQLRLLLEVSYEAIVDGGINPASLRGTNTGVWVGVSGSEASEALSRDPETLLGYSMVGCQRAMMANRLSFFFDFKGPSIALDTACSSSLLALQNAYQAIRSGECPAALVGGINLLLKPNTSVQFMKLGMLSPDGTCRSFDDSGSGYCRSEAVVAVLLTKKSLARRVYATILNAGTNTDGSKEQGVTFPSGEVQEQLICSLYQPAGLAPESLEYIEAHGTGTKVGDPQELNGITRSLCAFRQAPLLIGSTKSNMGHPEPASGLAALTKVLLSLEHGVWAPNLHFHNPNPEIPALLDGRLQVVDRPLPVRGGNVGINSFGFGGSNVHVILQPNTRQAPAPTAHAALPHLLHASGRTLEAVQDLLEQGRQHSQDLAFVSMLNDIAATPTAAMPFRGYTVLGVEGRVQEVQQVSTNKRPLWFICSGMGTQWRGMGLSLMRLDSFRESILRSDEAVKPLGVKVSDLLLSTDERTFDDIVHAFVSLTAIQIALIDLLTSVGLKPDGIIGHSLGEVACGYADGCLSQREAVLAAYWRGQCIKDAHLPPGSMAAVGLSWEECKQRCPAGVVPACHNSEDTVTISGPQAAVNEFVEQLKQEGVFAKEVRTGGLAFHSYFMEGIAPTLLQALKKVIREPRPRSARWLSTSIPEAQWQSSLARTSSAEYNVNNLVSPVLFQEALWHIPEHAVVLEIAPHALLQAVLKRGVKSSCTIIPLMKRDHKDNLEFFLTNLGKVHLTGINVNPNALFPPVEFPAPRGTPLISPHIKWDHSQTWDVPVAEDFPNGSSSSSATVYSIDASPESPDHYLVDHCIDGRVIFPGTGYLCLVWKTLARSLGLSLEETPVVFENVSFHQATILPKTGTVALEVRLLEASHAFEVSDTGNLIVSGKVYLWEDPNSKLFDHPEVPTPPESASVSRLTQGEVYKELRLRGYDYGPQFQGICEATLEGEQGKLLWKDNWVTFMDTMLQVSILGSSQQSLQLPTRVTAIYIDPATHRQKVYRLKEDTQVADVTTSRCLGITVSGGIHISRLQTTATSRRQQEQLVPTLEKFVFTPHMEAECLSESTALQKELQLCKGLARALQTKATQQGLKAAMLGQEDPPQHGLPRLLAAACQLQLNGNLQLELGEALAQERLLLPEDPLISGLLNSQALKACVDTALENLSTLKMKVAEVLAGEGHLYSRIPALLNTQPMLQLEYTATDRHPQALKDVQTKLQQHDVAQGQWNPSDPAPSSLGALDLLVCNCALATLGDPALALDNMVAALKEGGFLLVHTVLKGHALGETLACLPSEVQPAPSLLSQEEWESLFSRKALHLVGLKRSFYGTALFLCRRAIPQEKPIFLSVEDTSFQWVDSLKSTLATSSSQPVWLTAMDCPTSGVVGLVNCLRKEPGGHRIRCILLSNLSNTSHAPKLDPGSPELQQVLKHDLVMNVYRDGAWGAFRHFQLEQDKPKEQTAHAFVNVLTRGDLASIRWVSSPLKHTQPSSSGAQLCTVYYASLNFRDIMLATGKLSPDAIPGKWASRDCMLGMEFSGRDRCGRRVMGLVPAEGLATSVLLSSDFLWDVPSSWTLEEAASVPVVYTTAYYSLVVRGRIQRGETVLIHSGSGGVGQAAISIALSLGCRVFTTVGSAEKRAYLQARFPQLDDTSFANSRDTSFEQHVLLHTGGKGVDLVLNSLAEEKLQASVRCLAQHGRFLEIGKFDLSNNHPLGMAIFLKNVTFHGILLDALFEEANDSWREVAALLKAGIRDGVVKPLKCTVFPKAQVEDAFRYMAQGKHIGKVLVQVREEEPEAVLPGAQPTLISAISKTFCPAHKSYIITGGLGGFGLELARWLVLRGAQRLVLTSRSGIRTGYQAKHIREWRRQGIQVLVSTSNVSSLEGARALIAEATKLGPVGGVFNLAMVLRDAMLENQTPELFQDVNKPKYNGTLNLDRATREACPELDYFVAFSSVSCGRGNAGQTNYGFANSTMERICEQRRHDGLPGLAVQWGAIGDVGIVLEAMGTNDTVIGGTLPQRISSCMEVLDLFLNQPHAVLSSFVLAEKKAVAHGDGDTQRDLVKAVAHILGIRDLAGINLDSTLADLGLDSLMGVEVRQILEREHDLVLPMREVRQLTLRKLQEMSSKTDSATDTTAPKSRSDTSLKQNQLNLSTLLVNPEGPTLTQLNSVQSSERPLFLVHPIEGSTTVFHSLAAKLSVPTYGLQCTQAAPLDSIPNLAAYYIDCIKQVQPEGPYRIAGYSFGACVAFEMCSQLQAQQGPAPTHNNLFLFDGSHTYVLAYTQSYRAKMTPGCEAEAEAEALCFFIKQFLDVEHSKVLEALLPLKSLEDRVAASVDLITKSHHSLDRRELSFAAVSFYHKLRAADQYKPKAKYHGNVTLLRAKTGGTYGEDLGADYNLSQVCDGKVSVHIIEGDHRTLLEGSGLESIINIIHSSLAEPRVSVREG

Regarding `C=C1C(=O)OC(CCCCCCCC)C1C(=O)O` (stereo not shown) [C75, reference compound], the “FAS activity, level of suppression compared with rAIM” value is on record as “the same”.
